How the values were obtained:
Format in all cases: in vivo, rat
[1] = system: conscious Sprague-Dawley rats; assay: Acute cardiovascular and renal excretory studies with ICV or IV norBNI pretreatment (Example 4); conditions: for Urine osmolality / Urine potassium concentration [K+] / Urine sodium concentration [Na+]: total 90-min urine
Procedure: Male Sprague-Dawley rats (Envigo Labs, Indianapolis, IN) were individually housed, allowed tap water and standard rodent diet ad libitum, and kept under a 12-hour light-dark cycle. Rats used in these experiments weighed between 300 and 350 grams and were randomly assigned to experimental groups. All procedures were conducted in accordance with the National Institutes of Health guidelines for the care and use of animals and approved by the Louisiana State University Health Sciences Center Institutional Animal Care and Use Committee.
Aseptic technique was adhered to for all surgeries and detailed surgical methods were followed as previously described.^14 Briefly, 3-5 days before experimentation, rats requiring central ventricle access for administration of drug/vehicle into the brain were anesthetized with ketamine and xylazine and a stainless-steel cannula was stereotaxically implanted into the right lateral cerebral ventricle.^14
On the morning of the experiment, rats were anesthetized and maintained with inhaled 2% isoflurane, and polyethylene catheters were surgically placed into the left femoral artery, left femoral vein, and urinary bladder.^15.16 Following surgery, rats were placed in an elevated restrainer for recovery and collection of urine from an indwelling bladder catheter.^15 After completion of experimental protocols, rats were anesthetized with isoflurane and decapitated.
During stabilization of cardiovascular and renal excretory parameters, rats received an isotonic saline infusion (55 μl/min), which lasted throughout the duration of the experiment. To record mean arterial pressure (MAP) and heart rate (HR), arterial catheters were connected to a pressure transducer (MLT0670, ADInstruments, Sydney, Australia), which was connected to Powerlab 8/30 (ADInstruments) and visualized using LabChart software (v8.1.5; ADInstruments). After one hour of recovery from surgery, rats were pretreated with the KOR antagonist norBNI or isotonic saline vehicle through either an intracerebroventricular (ICV) catheter or intravenous (IV) catheter. […] Next, drug or vehicle (isotonic saline) was injected into the femoral vein and urine samples were collected every 10 minutes during a 90-minute experimental period. The following drug concentrations were used: nalfurafine 5 μg/kg, difelikefalin 10 μg/kg, norBNI 30 mg/kg (IV), norBNI 1 μg/5 μL (ICV). All groups are n=6. Urine sodium and potassium were measured using a flame photometer (model 943; Instrumentation Laboratories, Lexington, MA). Urine volume was measured gravimetrically, and urine osmolality was measured using a vapor pressure osmometer (model 5600; WESCOR, Logan, UT).
All results are expressed as mean±SEM. For determining statistically different changes at time points within a treatment group, means were compared to the control value using 2-way ANOVA with repeated measures and a post hoc Dunnett test following confirmation of a significant F value. For statistically different changes at individual time points between treatment groups, mean values were compared using 2-way ANOVA with repeated measures and a post hoc Sidak test following confirmation of a significant/value. For means between groups for total urine output, urine sodium concentration, urine potassium concentration, and urine osmolality, a Student/test was used. Statistical significance was characterized as P<0.05 and statistics were performed on Prism 7.05 software (GraphPad Software, Inc, San Diego, CA).

[2] = system: Sprague-Dawley rats placed on a low-salt diet; assay: Reversal of furosemide diuretic resistance by difelikefalin in rats on a low sodium diet (FIG. 16); conditions: difelikefalin 20 μg/kg IP added on days 13-17, low sodium diet
Procedure: Male Sprague-Dawley rats were placed in individual metabolic cages in a room with 12-hour automatic light on/off control and allowed tap water. For these studies, rats were placed on a low-salt diet (0.1% NaCl) for one week prior to and throughout the experimental protocol. […] For the first two (2) days (control period), rats were administered vehicle (5% NaOH; 1 M PBS, IP) in the morning (9:00 am) and urine was then collected for 5-hours.

Sprague-Dawley rats = assay: Prevention of diuretic resistance to once daily furosemide by difelikefalin, 24-hour urine (FIG. 14); conditions: difelikefalin 20 μg/kg IP added to furosemide 10 mg/kg once daily
Procedure: Male Sprague-Dawley rats were placed in individual metabolic cages in a room with 12-hour automatic light on/off control and allowed tap water and rodent chow ad libitum. Over the next two (2) days (control period), rats were administered vehicle (5% NaOH; 1 M PBS, IP) in the morning (9:00 am) and urine was then collected for 24-hours.

[3] = system: conscious Sprague-Dawley rats; assay: Metabolic cage renal excretory studies, oral gavage (Example 3); conditions: oral gavage, mean±SEM; for Potassium concentration [K+] in cumulative urine / Sodium concentration [Na+] in cumulative urine: cumulative 5-hour urine, same doses; for Total urine output: cumulative urine of 5-hour protocol, nalfurafine 150 μg kg−1, furosemide 50 mg kg−1, HCTZ 5 mg kg−1, amiloride 5 mg kg−1, n=6
Procedure: (§1) Animals: Male Sprague-Dawley (SD) rats (Envigo Labs, Indianapolis, IN), 300-350 g, were individually housed under a 12 h light-dark cycle and allowed tap water and standard rodent diet ad libitum. Rats were randomly assigned to experimental groups for all acute and subacute studies. All procedures were approved by the Louisiana State University Health Sciences Center Institutional Animal Care and Use Committee and conducted in accordance with the National Institutes of Health guidelines for the care and use of animals.
Metabolic Cage Renal Excretory Studies: Rats were placed in metabolic cages (model 18cv, Fenco, Cataumet, MA) for 2 hours to allow for acclimation and voiding of residual urine. Following the acclimation period, rats were volume loaded with 20 cc kg^−1 drug or vehicle (isotonic saline) via oral gavage. Urines were collected each hour over a 5-hour period. Following completion of the study rats were returned to their home cages. […] These points are marked on the figures with number of measurements in parentheses.
(§2) Experimental Design and Analysis: All results are expressed as mean±SEM. […] Means between groups for total urine output, Na^+ concentration, K^+ concentration, and urine osmolality were compared using a Student's t-test. Statistical significance was characterized as P<0.05. Statistics were carried out using Prism 7.05 software (GraphPad Software, Inc., San Diego, CA) and IBM SPSS Statistics (IBM, Armonk, NY).

[4] = system: conscious Sprague-Dawley rats; assay: Acute cardiovascular and renal excretory studies, i.v. bolus (Example 3); conditions: for Effect on heart rate (HR) / Effect on MAP / Potassium concentration [K+] in cumulative urine / Sodium concentration [Na+] in cumulative urine / Urine osmolality / Total urine output: i.v. bolus; for Effect on heart rate (HR) / Effect on MAP: 90-min protocol; for Effect on MAP: diuretic alone; for Potassium concentration [K+] in cumulative urine / Sodium concentration [Na+] in cumulative urine / Urine osmolality: cumulative 90-min urine, same doses; for Potassium concentration [K+] in cumulative urine / Sodium concentration [Na+] in cumulative urine / Urine osmolality / Total urine output: mean±SEM; for Total urine output: cumulative urine of 90-min protocol, nalfurafine 5 μg kg−1, furosemide 7.5 mg kg−1, HCTZ 2.5 mg kg−1, amiloride 2 mg kg−1, n=6
Procedure: as §1
Surgical Procedures: Aseptic technique was followed for all surgical procedures. On the morning of the experiment, rats were anesthetized with and maintained under inhaled 2% isoflurane, and polyethylene catheters (PE50; BD Diagnostics, Sparks, MD) were surgically inserted into the left femoral vein and left femoral artery for the infusion of saline and/or drug administration and the recording of arterial blood pressure, respectively. Subsequently, a suprapubic incision was made and a flanged polyethylene catheter (PE240; BD Diagnostics, Sparks, MD) was inserted into the bladder, exteriorized, and sutured to surrounding muscle and skin. Rats were then placed in an elevated restrainer (Krowicki & Kapusta, 2011) to recover from surgery and allow collection of urine. When acute experimental protocols were completed, rats were anesthetized via isoflurane and decapitated.
Acute Cardiovascular and Renal Excretory Studies: Following surgery, rats received an i.v. infusion of isotonic saline at 55 μL min^−1 throughout the duration of the experiment and were allowed 4-6 hours to recover from anesthesia. Arterial catheters were connected to a pressure transducer (MLT0670, ADInstruments, Sydney, Australia), which was connected to Powerlab 8/30 (ADInstruments) for recording of pulsatile and mean arterial blood pressure (MAP) and heart rate (HR). Blood pressure and HR were visualized using LabChart software (v8.1.5; ADInstruments). […] Following this control period, drug or vehicle (isotonic saline) was injected into the femoral vein catheter at a volume of 2 cc kg^−1, and urines were collected in 10 minute periods for a span of 90 minutes. […] All groups are n=6. Urine volume was measured gravimetrically, urine sodium and potassium concentrations were measured using flame photometry (model 943; Instrumentation Laboratories, Lexington, MA), and urine osmolality was measured using a vapor pressure osmometer (model 5600; WESCOR, Logan, UT).
as §2

[5] = ICV norBNI (1 μg/5 μL) pretreatment
[6] = IV norBNI (30 mg/kg) pretreatment
[7] = difelikefalin 10 μg/kg IV, no pretreatment

In the case of Oc1ccc2c3c1O[C@H]1c4[nH]c5c(c4C[C@@]4(O)[C@@H](C2)N(CC2CC2)CC[C@]314)C[C@@]1(O)[C@H]2Cc3ccc(O)c4c3[C@@]1(CCN2CC1CC1)[C@H]5O4 [norBNI, norbinaltorphimine], the “Effect of norBNI pretreatment on the diuresis” value (shortened to “Effect of norBNI pretreatment”) ([1]; norBNI 1 μg/5 μL ICV before difelikefalin 10 μg/kg IV) is reported as “significantly attenuated the peak increase and duration of the difelikefalin-induced diuresis”, the “Effect of norBNI pretreatment” value ([1]; norBNI 1 μg/5 μL ICV before nalfurafine 5 μg/kg IV) is reported as “markedly attenuated” and the “Effect of norBNI pretreatment” value ([1]; norBNI 30 mg/kg IV before difelikefalin 10 μg/kg IV) is reported as “completely blocked the diuresis”. For the same molecule, the “Effect of norBNI pretreatment” value ([1]; norBNI 30 mg/kg IV before nalfurafine 5 μg/kg IV) was “nearly abolished”.

Difelikefalin was tested, and the “Effect on HR” value [1, 5] was “No changes in HR”, the “Effect on MAP” value [1, 5] was “no significant change in MAP” and the Total urine output ([1]; ICV norBNI (1 μg/5 μL) pretreatment, difelikefalin 10 μg/kg or nalfurafine 5 μg/kg IV, 90 min) was 5.49 ± 0.75 mL. For the same molecule, the Urine osmolality [1, 5] was 280 ± 26.99 mmol/kg, the “Urine potassium concentration [K+]” value [1, 5] was 13.63±3.05 μeq/mL and the “Urine sodium concentration [Na+]” value [1, 5] was 47.92±8.30 μeq/mL. The Total urine output ([1]; ICV vehicle (5 μL) pretreatment, difelikefalin 10 μg/kg or nalfurafine 5 μg/kg IV, 90 min) was 9.64 ± 0.52 mL, the “Effect on HR” value ([1]; ICV vehicle pretreatment) was “No changes in HR” and the “MAP peak Δ” value ([1]; ICV vehicle pretreatment, peak at 60 min (difelikefalin), 50 min (nalfurafine)) was −4 mmHg. The Urine osmolality ([1]; ICV vehicle pretreatment) was 170.7 ± 12.04 mmol/kg, the “Urine potassium concentration [K+]” value ([1]; ICV vehicle pretreatment) was 8.16±1.81 μeq/mL and the “Urine sodium concentration [Na+]” value ([1]; ICV vehicle pretreatment) was 45.24±6.67 μeq/mL. The “Effect on HR” value [1, 6] was “slight but statistically significant increases in HR”, the “MAP peak Δ” value ([1]; IV norBNI (30 mg/kg) pretreatment, 80-minute peak for difelikefalin) was −4.5 mmHg and the Total urine output ([1]; IV norBNI (30 mg/kg) pretreatment, difelikefalin 10 μg/kg or nalfurafine 5 μg/kg IV, 90 min) was 4.44 ± 0.28 mL. The Urine osmolality [1, 6] was 515 ± 35.8 mmol/kg, the “Urine potassium concentration [K+]” value [1, 6] was 27.78±5.35 μeq/mL and the “Urine sodium concentration [Na+]” value [1, 6] was 140.4±10.7 μeq/mL. The Total urine output ([1]; IV vehicle (2 cc/kg) pretreatment, difelikefalin 10 μg/kg or nalfurafine 5 μg/kg IV, 90 min) was 9.49 ± 0.30 mL, the “Effect on HR” value ([1]; IV vehicle pretreatment) was “slight but statistically significant increases in HR” and the “MAP peak Δ” value ([1]; IV vehicle pretreatment, peak at 70 min (difelikefalin), 60 min (nalfurafine)) was −11 mmHg. For the same molecule, the Urine osmolality ([1]; IV vehicle pretreatment) was 161.2 ± 9.98 mmol/kg, the “Urine potassium concentration [K+]” value ([1]; IV vehicle pretreatment) was 5.66±1.04 μeq/mL and the “Urine sodium concentration [Na+]” value ([1]; IV vehicle pretreatment) was 38.93±4.01 μeq/mL. The “Duration of the increase in urine flow rate” value [1, 7] was 50 min, the “Effect on HR” value [1, 7] was “Neither IV saline nor difelikefalin altered HR” and the “Time of peak diuresis” value [1, 7] was 30 min. The Total urine output ([1]; difelikefalin 10 μg/kg IV, no pretreatment (FIG. 9B), 90-minute period, mean±SEM, n=6) was 10.62 ± 0.47 mL, the Urine osmolality [1, 7] was 169.70 ± 13.89 mmol/kg and the “Urine potassium concentration [K+]” value [1, 7] was 5.53±0.63 μeq/mL. The “Urine sodium concentration [Na+]” value [1, 7] was 32.22±6.48 μeq/mL, the “Effect on established diuretic resistance to furosemide” value [2] was “rescues the established diuretic resistance” and the “Effect on diuretic resistance to furosemide” value (Sprague-Dawley rats) was “prevents the diuretic resistance”.

In the case of NS(=O)(=O)c1cc2c(cc1Cl)NCNS2(=O)=O [HCTZ, hydrochlorothiazide], the “Potassium concentration [K+] in cumulative urine” value [3] is reported as 26.50±1.91 μeq ml^−1, the “Sodium concentration [Na+] in cumulative urine” value [3] is reported as 119.70±3.04 μeq ml^−1 and the Total urine output [3] is reported as 14.55 ± 0.57 mL. The “Duration of the increase in urine flow rate above control” value ([4]; after i.v. bolus) was “returned to baseline levels by 50-min”, the “Effect on heart rate (HR)” value [4] was “did not produce any changes in MAP or HR” and the “Effect on MAP” value [4] was “did not produce any changes in MAP or HR”. For the same molecule, the “Potassium concentration [K+] in cumulative urine” value [4] was 14.76±3.12 μeq ml^−1, the “Sodium concentration [Na+] in cumulative urine” value [4] was 155.6±8.04 μeq ml^−1 and the Urine osmolality [4] was 439.3 ± 15.94 mmol/kg. The Total urine output [4] was 9.22 ± 0.50 mL.

With N=C(N)NC(=O)c1nc(Cl)c(N)nc1N [amiloride] the “Potassium concentration [K+] in cumulative urine” value [3] was 4.02±0.54 μeq ml^−1, the “Sodium concentration [Na+] in cumulative urine” value [3] was 130.9±5.32 μeq ml^−1 and the Total urine output [3] was 8.61 ± 0.63 mL. The “Duration of the increase in urine flow rate above control” value ([4]; after i.v. bolus) was 30 min, the “Time of peak diuresis (urine flow rate)” value ([4]; after i.v. bolus) was 10 min and the “Effect on heart rate (HR)” value [4] was “Heart rate did not change”. The “Effect on MAP” value [4] was “minimal effects on MAP”, the “Potassium concentration [K+] in cumulative urine” value [4] was 0.85±0.19 μeq ml^−1 and the “Sodium concentration [Na+] in cumulative urine” value [4] was 137.60±6.01 μeq ml^−1. The Urine osmolality [4] was 398.3 ± 18.05 mmol/kg and the Total urine output [4] was 8.42 ± 0.40 mL.

From patent US20240180895A1, “USE OF KAPPA OPIOID RECEPTOR AGONISTS TO TREAT CARDIOVASCULAR DISEASE” (Board of Supervisors of Louisiana State University and …, priority 2021, published 2024)
